US12409156B2, “Stable aqueous hydroxycarbamide solution” (Nova Bio-Pharma Product Development LTD, priority 2018, dated 2025)

Legend:
six organisms tested = assay: Preservative efficacy study
Procedure: In parallel to this work, a preservative efficacy study was performed to investigate the effectiveness of the preservative system.

[1] = cited from earlier work
Rat toxicology studies = type: in vivo; conditions: compared with hydroxycarbamide (hydroxyurea)
Procedure: Importantly, the composition disclosed in U.S. Pat. No. 3,119,866 is only stable as a dry composition, after evaporation of all water. […] After this time unacceptable levels of degradation products are present in the aqueous solution. As a result, it has previously been considered that the use of pH buffers such as potassium citrate and citric acid/sodium citrate to stabilise solutions of hydroxycarbamide is not effective. At temperatures between 2° C. and 8° C., the applicant has discovered that the main degradation product of hydroxycarbamide solutions is carbamoyloxyurea. The International Conference on Harmonisation of Technical Requirements for Registration of Pharmaceuticals for Human Use (ICH) stipulates that the maximum allowable limit for any degradant in a formulation should not exceed 0.15% w/v, at therapeutic doses of hydroxycarbamide in the treatment of sickle cell disease. […] As a result, the European Medicines Agency has now accepted that carbamoyloxyurea contents of up to 0.5% w/v are acceptable.

| Compound | antimicrobial activity (six organisms tested) | variation of exposure for a given dosing regime ([1]; adult patients) | differences in exposure at the same mg/kg dose ([1]; paediatric patients) | risk in rat toxicology studies (Rat toxicology studies) |
| --- | --- | --- | --- | --- |
| NC(=O)NO [hydroxycarbamide, Hydroxycarbamide] | able to inhibit the growth of six organisms tested | approximately five-fold | two to three-fold |  |
| NC(=O)NOC(N)=O [carbamoyloxyurea] |  |  |  | does not pose a risk over and above hydroxycarbamide |
